Test: Blackhead dissolution test (extracted blackheads submerged in test material, graded by expert inspection)
Set-up: species or system human
Details: blackhead submerged in approximately 100 microliters test material for 24 hours at room temperature, no agitation; 1 = not dissolved, 7 = completely dissolved
Experimental: A series of compounds and compositions were tested for their ability to dissolve blackheads as follows.
The blackheads were extracted from human volunteers using a comedone extracator. They were placed in a 24 or 96 well plate and submerged into approximately 100 microliters of each test material listed in Table 1 for 24 hours at room temperature ([…]). Gray color cards (GretagMacbeth ColorChecker™ Color Rendition Chart-Neutral 8 (0.23) CC20) were used underneath and measurements were made using a WILD M10 microscope at 40x, no agitation. The plates were covered with parafilm to avoid evaporation, and each test solution was removed at 24 hours and allowed to dry overnight. The amount of blackhead dissolved was graded by expert inspection on a scale from 1-7, 1 being not dissolved, and 7 being completely dissolved as shown in Table 1.

Compound | Outcome at 24 hours (amount of blackhead dissolved, grade on scale 1-7)
[Na+].[OH-] [0.1M NaOH, NaOH, reference compound] | 4.33 ± 0.58
CCCCCCCCCCCCCC(=O)O [10% Myristic acid in KOH, Myristic acid] | 6.00 ± 0.01
CCCCCCCC/C=C\CCCCCCCC(=O)O [10% Oleic acid in KOH, Oleic acid] | 7.00 ± 0.01

— patent publication US20170087109A1, “COMPOSITIONS AND METHODS FOR TREATING BLACKHEADS” (Johnson & Johnson Consumer Inc., priority 2015, published 2017)
